Assay results: PubChem BioAssay (NCI)
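In this assay, cells in 96-well plates receive the compound at five concentrations for 48 hours. Endpoints are linearly interpolated between the surrounding concentrations. At the TGI there is no net growth.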

How the values were obtained:
Assay in all cases: NCI-60 cell line screen, 48 h
HOP-92 NSCLC = tested on: HOP-92 NSCLC
SK-MEL-28 melanoma = tested on: SK-MEL-28 melanoma
MDA-N = tested on: MDA-N
U251 CNS = tested on: U251 CNS
NCI-H460 lung = tested on: NCI-H460 lung
SW-620 colon = tested on: SW-620 colon
SNB-19 CNS = tested on: SNB-19 CNS
DU-145 prostate = tested on: DU-145 prostate
NCI/ADR-RES ovarian = tested on: NCI/ADR-RES ovarian
MDA-MB-231 breast = tested on: MDA-MB-231 breast
MOLT-4 leukemia = tested on: MOLT-4 leukemia
UO-31 renal = tested on: UO-31 renal
HOP-62 NSCLC = tested on: HOP-62 NSCLC
HCT-116 colon = tested on: HCT-116 colon
SNB-75 CNS = tested on: SNB-75 CNS
CCRF-CEM leukemia = tested on: CCRF-CEM leukemia
MDA-MB-435 = tested on: MDA-MB-435
T-47D breast = tested on: T-47D breast

Compound	TGI (HOP-92 NSCLC) [µM]	TGI (SK-MEL-28 melanoma) [µM]	TGI (MDA-N) [µM]	TGI (U251 CNS) [µM]	TGI (NCI-H460 lung) [µM]	TGI (SW-620 colon) [µM]	TGI (SNB-19 CNS) [µM]	TGI (DU-145 prostate) [µM]	TGI (NCI/ADR-RES ovarian) [µM]	TGI (MDA-MB-231 breast) [µM]	TGI (MOLT-4 leukemia) [µM]	TGI (UO-31 renal) [µM]	TGI (HOP-62 NSCLC) [µM]	TGI (HCT-116 colon) [µM]	TGI (SNB-75 CNS) [µM]	TGI (CCRF-CEM leukemia) [µM]	TGI (MDA-MB-435) [µM]	TGI (T-47D breast) [µM]
O=c1[nH]n(Cc2ccccn2)c2ccc([N+](=O)[O-])cc12	> 100	> 100	> 100	> 100	> 100	> 100	> 100	> 100	> 100	> 100	> 100	> 100	> 100	> 100	> 100	> 100		
COC(=O)[C@@H]1C[C@@H]2c3ccccc3N(S(=O)(=O)c3ccccc3)[C@@H]2N1C(=O)OC	> 100	> 100	> 100	> 100	> 100	> 100	> 100	> 100	> 100	> 100	> 100	> 100	> 100	> 100	> 100	> 100	> 100	
COc1cccc(C2C3=C(COC3=O)Oc3cc4c(cc32)OCO4)c1 (centres undefined)		> 100	< 0.0202	> 100	> 34	> 100	> 100	6.77	> 6.6	> 43.3	14.1	> 100	> 14	> 31.6	> 100	7.74	0.0817	
NC(=O)c1[nH]cnc1/N=N/SCC(N)C(=O)O (centres undefined)	> 100	> 100		> 100	> 100	> 100	> 100	> 100	> 100	> 54.9		> 93.9	> 100	> 100	> 100	> 100	> 100	> 100
O=C(c1cccc(C(=O)c2ccc3c4c(cccc24)C(=O)N(c2ccccc2)C3=O)c1)c1ccc2c3c(cccc13)C(=O)N(c1ccccc1)C2=O	> 100	> 100	> 100	> 100	> 100	> 100	> 100	> 100	> 100	> 100	> 100	> 100	> 100	> 100	> 100		> 100	
O=C1/C(=C/c2ccco2)N=C(c2ccccc2)N1c1cc2cc(Sc3ccccc3)ccc2[nH]1	> 25	> 25	> 25			> 25	> 25	> 25	> 25		> 25	> 25		> 25	> 25	> 25	> 25	> 25
Cc1cc(OCC(=O)N/N=C/C(Br)=C/c2ccccc2)nc(SCC(=O)N/N=C/C(Br)=C/c2ccccc2)n1	86.4	> 100	> 100	> 100	> 100	> 100	> 100	> 100	> 100			> 100	> 100	> 100		> 100	> 100	
